According to patent US6974871B2, “Dequalinium analogs” (priority 2000, dated 2005):
“And” between values parts separate entries of the source, which are not always exact repeats. Equal entries are not always repeated. Blank lines part the entries; values can stand above or below the molecule they belong to.

Key:
Recombinant human PKCα = target: T1, Recombinant human PKCα (Homo sapiens, UniProt P17252); assay: Assay of PKCα catalytic activity in vitro; assay type: biochemical; details: for IC50: reversible binding conditions, average of two or more independent experiments (± s.d.), read-out: IC50 (analogue concentration producing 50% inhibition of PKCα activity); for fold stronger inhibitory potency compared with C6-DECA (1a): IC50 ratio versus 1a; for fold stronger inhibitory potency than 1c: IC50 ratio versus 1c (C10-DECA)
T1 construct: purchased PanVera Corp., Madison, Wis
Protocol: Assay of PKCα Catalytic Activity In Vitro
(§1) Recombinant human PKCα (>95% pure) (PanVera Corp., Madison, Wis.) was used for testing DECA analogues in vitro. Total PKCα catalytic activity (36 ng protein) and the indicated concentration of DECA analogue was measured in triplicate in the presence of activating cofactors (10 μg phosphatidylserine, 0.5 mM Ca^2+) by the transfer of ^32P from [γ-^32P]-ATP to the modified pseudosubstrate peptide (RFARKGSLRQKNV), as described elsewhere^1. For assay of partially purified B16 F10 cell lysates (25 μg/assay), PKC activity was taken as the difference in phosphotransferase activity measured in triplicate in the presence and absence of activating cofactors (10 μg phosphatidylserine, 0.5 mM Ca^2+) as previously described^2.

[1] = tested on: murine melanoma B16 F10 cells; assay: Cell migration in transwell (Boyden chamber); assay type: cell-based; details: for inhibition of cell migration: 250 nM plus UV 5 min, initial 3 h post-treatment, Boyden chamber
Protocol: A 12-mm Costar transwell (Boyden chamber) having a 12-μm pore size was used to measure cell movement across a porous polycarbonate membrane. The bottom surface was coated with 35 μg Matrigel for 1 h at 37° C., 5% CO2. Cells were seeded into the upper chamber of the transwell at 10^5 cells/well and incubated at 37° C., 5% CO2. Following incubation for 3 h, the upper chamber was carefully wiped with a cotton swab in order to remove cells that remained on the upper membrane surface. Those cells that had migrated to the lower membrane surface were fixed and stained by the H+E Method (Fisher Diagnostics Leukostat). By use of a Nikon Diaphot-TMD inverted microscope at 400× magnification, eight fields of adherent cells were randomly counted in each well and numerically averaged. Each condition was conducted in triplicate and statistical significance was determined by ANOVA using SigmaStat software.
Inhibition of cell migration by 250 nM DECA analogues (C10-(control), C12-, and C14-DECA) was analyzed during the initial 3 h post-treatment by the use of Boyden chambers. Cells that had been treated with a DECA analogue plus UV were applied to the upper surface of the membrane whereupon they moved chemotactically through the membrane, and adhered to Matrigel, which had been coated onto the under surface of the membrane. Following the initial 3 h, the number of cells migrating to this lower surface was measured.
A confluent monolayer of cells was washed twice with PBS and the indicated concentration of DECA analogue was added to the cells in serum-free medium. Cells were treated with or without the drug for 1 h at 37° C., 5% CO2, followed by washing with PBS. In PBS and with the lids off, cells were irradiated with longwave UV light for 5-min (1200 μW/cm^2). Irradiation was carried out with a longwave UV lamp (American Ultraviolet Co., Murray Hill, N.J.) while the plate of cells were subjected to gentle shaking at room temperature. Following this treatment, the medium was removed and the cells were washed twice with PBS. […]

B16F10 cells = assay: Experimental metastasis in mice (B16F10 tail vein injection, pulmonary nodules); assay type: in vivo, C57BL/6 mice; details: 5 mg/kg IP every other day for 2 weeks, versus vehicle
Protocol: In preparation for tail vein injections, mice were tranquilized with 0.2 mg of acepromazine via i.p. injections. B16F10 cells obtained from ex-vivo culture were injected into the tail vein (10^5 cells/0.2 ml). Animals were treated IP with vehicle (0.36% sodium citrate) or 5 mg/kg of C14-DECA on the day of the tail vein injection and every other day thereafter for a 2-3 week experiment. At the end of the experimental period, the mice were sacrificed by CO2 asphyxiation. The lungs were removed and placed in 10% formalin until the metastatic nodules were counted using a dissecting microscope.

intracellular PKCα = target: T2, intracellular PKCα (Mus musculus, UniProt P20444); assay: Photoinduced inactivation of intracellular PKC activity in melanoma cells (DECA analogue plus longwave UV); assay type: cell-based, murine; details: B16 F10 cells; for inhibition at 0.25 µM: 250 nM, 1 h, plus UV irradiation 5 min
T2 construct: endogenous in cells; host or cells: murine melanoma B16 F10 cells
Protocol: as §1
Inactivation of PKCα in Murine Melanoma Cells with Ultraviolet Radiation and DECA Analogues
Murine melanoma B16 F10 cells were cultured in 15 cm^2 dishes to 75-80% confluence in RPMI medium containing 10% fetal bovine serum, 1% penicillin/streptomycin, and 0.125 μg/ml fungizone. Prior to drug application, cells were washed twice with phosphate buffered saline (PBS) and were restored in serum-free medium containing either DMSO (0.1% v/v) or 250 nM C12-, C14-, or C16-DECA analogue. Monolayers of cells were treated with or without the indicated DECA analogue for 1 h and irradiated for 5-min (1200 μW/cm^2) with a UV lamp (American Ultraviolet Co., Murray Hill, N.J.). Following this treatment, the medium was removed and the cells were washed twice with PBS. Preparation of cell lysates was followed by partial purification by DEAE-Sephacel chromatography, as previously described^2.
A confluent monolayer of cells was washed twice with PBS and the indicated concentration of DECA analogue was added to the cells in serum-free medium. Cells were treated with or without the drug for 1 h at 37° C., 5% CO2, followed by washing with PBS. In PBS and with the lids off, cells were irradiated with longwave UV light for 5-min (1200 μW/cm^2). […]

[2] = tested on: murine melanoma B16 F10 cells; assay: Time-lapse cell motility (scratch wound) assay; assay type: cell-based; details: 250 nM plus UV 5 min
Protocol: To measure cell motility by digital image capture, an Olympus IMT-2 inverted phase contrast microscope (Olympus Microscopes, UK), fitted with a Fujitsu TC2-336P CCD camera (EOS Electronics AV Ltd, Barry, Wales) and surrounded by a perspex temperature-regulated jacket that was adjusted to 37° C. Cells were plated onto 3-cm^2 petri dishes such that a densely confluent monolayer was achieved within 24 or 48 h. Following treatment of cells with C10-DECA and UV, a ‘scratch wound’ was created by drawing a sterile micro-pipette tip along the monolayer using a ruler as a guide. Detached cells were removed by washing twice in growth medium before adding 2 ml fresh medium. […] The chamber was gassed with 10% CO2 in humidified air and was placed onto the stage of the microscope. A regular wound edge was chosen and digital images were collected every 30 min for 8 h onto a Power Mac 7100 using Adobe Premier software. The percentage of the capture window (determined as 726 μm×544 μm) that had been filled in by the movement of cells (normalized to the original wound edge) was determined with Optilab software and plotted against time.
A confluent monolayer of cells was washed twice with PBS and the indicated concentration of DECA analogue was added to the cells in serum-free medium. Cells were treated with or without the drug for 1 h at 37° C., 5% CO2, followed by washing with PBS. […]

[3] = target: cAMP-dependent protein kinase (PKA) (Homo sapiens, UniProt P17612); assay: Inhibition of homologous protein kinase PKA; assay type: biochemical; details: micromolar concentrations
[4] = target: pp60src tyrosine protein kinase (Homo sapiens, UniProt P12931); assay: Inhibition of homologous protein kinase pp60src; assay type: biochemical; details: micromolar concentrations
[5] = tested on: calmodulin-dependent myosin light chain kinase; assay: Inhibition of homologous protein kinase MLCK; assay type: biochemical; details: micromolar concentrations
[6] = target: protein kinase C (PKC) isoforms (e.g., α, β1); details: several isoforms (e.g., α, β1); read-out: IC50 for PKC isoforms in vitro; cited from earlier work

pp60src tyrosine protein kinase, sequence (P12931 whole entry): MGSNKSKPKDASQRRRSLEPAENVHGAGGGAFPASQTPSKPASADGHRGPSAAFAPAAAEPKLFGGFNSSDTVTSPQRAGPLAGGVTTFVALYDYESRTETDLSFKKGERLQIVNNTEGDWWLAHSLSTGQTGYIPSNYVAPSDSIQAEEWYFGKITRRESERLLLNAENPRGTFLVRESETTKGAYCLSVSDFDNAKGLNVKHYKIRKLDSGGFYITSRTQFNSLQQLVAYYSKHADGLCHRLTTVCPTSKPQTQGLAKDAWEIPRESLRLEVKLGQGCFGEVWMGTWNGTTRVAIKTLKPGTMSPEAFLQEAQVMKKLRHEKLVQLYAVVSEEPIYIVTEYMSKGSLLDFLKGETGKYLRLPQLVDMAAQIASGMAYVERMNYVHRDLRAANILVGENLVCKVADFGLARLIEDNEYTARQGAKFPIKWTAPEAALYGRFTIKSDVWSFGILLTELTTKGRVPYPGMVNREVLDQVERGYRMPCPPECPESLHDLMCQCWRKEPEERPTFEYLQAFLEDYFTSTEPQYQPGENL

IC50 (Recombinant human PKCα): 117 ± 8 µM
SMILES: CCCCCCCCCC[n+]1c(C)cc(N)c2ccccc21 [Compound 2, N-Decyl-4-aminoquinaldinium iodide]

IC50 (Recombinant human PKCα): 3590 ± 510 µM
SMILES: Cc1cc(N)c2ccccc2[n+]1C [Compound 3]

IC50 (Recombinant human PKCα): 25 ± 9 µM
SMILES: Cc1cc(N)c2ccccc2[n+]1CCCCCCCC[n+]1c(C)cc(N)c2ccccc21 [Compound 1b]

IC50 (Recombinant human PKCα): 11 µM and 11 to 12 µM | sensitivity of PKA to inhibition [3]: insensitive | sensitivity of pp60src tyrosine protein kinase to inhibition [4]: insensitive | inhibition at 0.25 µM (intracellular PKCα): 35% | sensitivity of calmodulin-dependent myosin light chain kinase to inhibition [5]: insensitive
SMILES: Cc1cc(N)c2ccccc2[n+]1CCCCCCCCCC[n+]1c(C)cc(N)c2ccccc21 [Compound 1c, quinolinium, 1,1′-(1,10-decanediyl)bis(4-amino-2-methyldiiodide)]
inhibition of cell migration [1]: 20-30% | loss of cell motility [2]: 33% | IC50 [6]: 10 to 14 µM

The remaining lines, values behind:

SMILES: Cc1cc(N)c2ccccc2[n+]1CCCCCC[n+]1c(C)cc(N)c2ccccc21 [Compound 1a]
IC50 (Recombinant human PKCα): 54 µM

SMILES: Cc1cc(N)c2ccccc2[n+]1CCCCCCCCCCCC[n+]1c(C)cc(N)c2ccccc21 [Compound 1d, 1,1′-(1,12-Dodecanediyl)bis[4-amino-2-methyl]quinolinium, diiodide]
IC50 (Recombinant human PKCα): 5 ± 2 µM

SMILES: Cc1cc(N)c2ccccc2[n+]1CCCCCCCCCCCCCC[n+]1c(C)cc(N)c2ccccc21 [Compound 1e, 1,1′-(1,14-Tetradecanediyl)bis[4-amino-2-methyl]quinolinium, diiodide]
inhibition of cell migration [1]: 40-60% | concentration dependence of inhibition of cell migration ([1]; range of 0-500 nM): dose-dependent | fold stronger inhibitory potency compared with C6-DECA (1a) (Recombinant human PKCα): 20 fold | fold stronger inhibitory potency than 1c (Recombinant human PKCα): 4 fold | IC50 (Recombinant human PKCα): 2.6 µM and 2.5 µM | fewer pulmonary nodules (B16F10 cells): 40% | inhibition of intracellular PKC activity without UV (intracellular PKCα; 250 nM alone, no UV): no inhibitory effect | inhibition at 0.25 µM (intracellular PKCα): 40 to 60%

SMILES: Cc1cc(N)c2ccccc2[n+]1CCCCCCCCCCCCCCCC[n+]1c(C)cc(N)c2ccccc21 [Compound 1f, 1,1′-(1,16-Hexadecanediyl)bis[4-amino-2-methyl]quinolinium, diiodide]
fold stronger inhibitory potency compared with C6-DECA (1a) (Recombinant human PKCα): 20 fold | fold stronger inhibitory potency than 1c (Recombinant human PKCα): 4 fold | IC50 (Recombinant human PKCα): 2.6 µM and 2.8 µM
